In PubChem BioAssay AID328 (DTP/NCI, 2004):
“And” between values parts separate entries of the source, which are not always exact repeats. Equal values may be shown once. Toxic doses and inconclusive results are not listed.

Test system: BDF1 mice, P388 leukemia ip, median survival T/C
Experiment: NCI In Vivo Anticancer Drug Screen. Data for tumor model P388 Leukemia (intraperitoneal) in B6D2F1 (BDF1) mice
Details: endpoint: median survival time, higher = longer survival
In short: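 In tumour-bearing mice, survival after compound treatment is set against the vehicle group and given as a quotient.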

[1] = dose: 100.0 mg/kg/injection, schedule: Q04DX003 (ip), vehicle: saline
[2] = dose: 100.0 mg/kg/injection, schedule: Q04DX003 (ip), vehicle: saline with Tween-80
[3] = dose: 200.0 mg/kg/injection, schedule: Q04DX003 (ip), vehicle: saline with Tween-80
[4] = dose: 400.0 mg/kg/injection, schedule: Q04DX003 (ip), vehicle: saline with Tween-80
[5] = dose: 100.0 mg/kg/injection, schedule: Q01DX009 (ip), vehicle: Klucel (hydroxypropylcellulose) (HPC)
[6] = dose: 200.0 mg/kg/injection, schedule: Q01DX009 (ip), vehicle: Klucel (hydroxypropylcellulose) (HPC)
[7] = dose: 400.0 mg/kg/injection, schedule: Q01DX009 (ip), vehicle: Klucel (hydroxypropylcellulose) (HPC)
[8] = dose: 400.0 mg/kg/injection, schedule: Q04DX003 (ip), vehicle: saline
[9] = dose: 25.0 mg/kg/injection, schedule: Q01DX009 (ip), vehicle: saline with Tween-80
[10] = dose: 50.0 mg/kg/injection, schedule: Q01DX009 (ip), vehicle: saline with Tween-80
[11] = dose: 100.0 mg/kg/injection, schedule: Q01DX009 (ip), vehicle: saline with Tween-80
[12] = dose: 200.0 mg/kg/injection, schedule: Q01DX009 (ip), vehicle: saline with Tween-80
[13] = dose: 400.0 mg/kg/injection, schedule: Q01DX009 (ip), vehicle: saline with Tween-80

In the case of `CN(c1ccccc1)c1cc2c(cc1[N+](=O)[O-])no[n+]2[O-]`, the T/C (dose: 15.0 mg/kg/injection, schedule: Q01DX009 (ip), vehicle: saline with Tween-80) is reported as 118 % of control and the T/C (dose: 60.0 mg/kg/injection, schedule: Q01DX009 (ip), vehicle: saline with Tween-80) is reported as 113 % of control.
In the case of `NC(CO)CSCc1ccccc1` (stereo unspecified), the T/C (dose: 12.5 mg/kg/injection, schedule: Q04DX003 (ip), vehicle: saline) is reported as 114 % of control, the T/C (dose: 25.0 mg/kg/injection, schedule: Q04DX003 (ip), vehicle: saline) is reported as 104 % of control and the T/C (dose: 50.0 mg/kg/injection, schedule: Q04DX003 (ip), vehicle: saline) is reported as 98 % of control. The T/C [1] was 97 % of control.
With `Fc1ccc(C=Nc2cccc(Cl)c2)cc1` the T/C [2] was 108 % of control, the T/C [3] was 104 % of control and the T/C [4] was 108 % of control.
With `O=NN(CCBr)C(=O)NCCBr` the T/C (dose: 30.0 mg/kg/injection, schedule: Q01DX009 (ip), vehicle: gum acacia) was 158 % of control, the T/C (dose: 44.0 mg/kg/injection, schedule: Q01DX009 (ip), vehicle: gum acacia) was 158 % of control and the T/C (dose: 50.0 mg/kg/injection, schedule: Q01DX009 (ip), vehicle: gum acacia) was 196 % of control. The T/C (dose: 67.0 mg/kg/injection, schedule: Q01DX009 (ip), vehicle: gum acacia) was 169 % of control and 191 % of control, the T/C (dose: 67.0 mg/kg/injection, schedule: Q04DX003 (ip), vehicle: gum acacia) was 165 % of control and the T/C [5] was 112 % of control. For the same compound, the T/C (dose: 100.0 mg/kg/injection, schedule: Q01DX009 (ip), vehicle: gum acacia) was 192 % of control and 200 % of control, the T/C (dose: 100.0 mg/kg/injection, schedule: Q04DX003 (ip), vehicle: gum acacia) was 173 % of control and the T/C [1] was 118 % of control. The T/C (dose: 150.0 mg/kg/injection, schedule: Q01DX009 (ip), vehicle: gum acacia) was 226 % of control, the T/C (dose: 150.0 mg/kg/injection, schedule: Q04DX003 (ip), vehicle: gum acacia) was 230 % of control and the T/C [6] was 154 % of control. For the same compound, the T/C [7] was 170 % of control and the T/C [8] was 190 % of control.
With `O=C(Nc1ccc(Cl)c(Cl)c1)Nc1cc(Cl)ccc1Sc1ccc(Cl)cc1S(=O)(=O)O` the T/C [9] was 109 % of control, the T/C [10] was 95 % of control and the T/C [11] was 90 % of control.
For `NNC(=O)CCCCCC(=O)NN`, the T/C (dose: 100.0 mg/kg/injection, schedule: Q01DX001 (ip), vehicle: saline) was 100 % of control, the T/C (dose: 100.0 mg/kg/injection, schedule: Q01DX009 (ip), vehicle: alcohol) was 110 % of control and the T/C [1] was 95 % of control. For the same compound, the T/C (dose: 200.0 mg/kg/injection, schedule: Q01DX001 (ip), vehicle: saline) was 100 % of control, the T/C (dose: 200.0 mg/kg/injection, schedule: Q01DX009 (ip), vehicle: alcohol) was 95 % of control and the T/C (dose: 200.0 mg/kg/injection, schedule: Q04DX003 (ip), vehicle: saline) was 113 % of control. For the same compound, the T/C (dose: 400.0 mg/kg/injection, schedule: Q01DX001 (ip), vehicle: saline) was 100 % of control, the T/C (dose: 400.0 mg/kg/injection, schedule: Q01DX009 (ip), vehicle: alcohol) was 90 % of control and the T/C [8] was 90 % of control.
For `COc1ccccc1OCC(C)=O`, the T/C (dose: 178.0 mg/kg/injection, schedule: Q04DX003 (ip), vehicle: saline with Tween-80) was 104 % of control, the T/C (dose: 266.0 mg/kg/injection, schedule: Q04DX003 (ip), vehicle: saline with Tween-80) was 104 % of control and the T/C [4] was 114 % of control. The T/C (dose: 600.0 mg/kg/injection, schedule: Q04DX003 (ip), vehicle: saline with Tween-80) was 104 % of control.
`O=C(O)CCC1(c2ccccc2)CCCC1=O` (stereo unspecified) was tested, and the T/C (dose: 0.39 mg/kg/injection, schedule: Q01DX009 (ip), vehicle: water) was 95 % of control, the T/C (dose: 0.39 mg/kg/injection, schedule: Q04DX003 (ip), vehicle: water) was 104 % of control and the T/C (dose: 0.78 mg/kg/injection, schedule: Q01DX009 (ip), vehicle: water) was 87 % of control and 122 % of control. The T/C (dose: 0.78 mg/kg/injection, schedule: Q04DX003 (ip), vehicle: water) was 100 % of control, the T/C (dose: 1.56 mg/kg/injection, schedule: Q01DX009 (ip), vehicle: water) was 101 % of control and 103 % of control and the T/C (dose: 1.56 mg/kg/injection, schedule: Q04DX003 (ip), vehicle: water) was 97 % of control. The T/C (dose: 3.12 mg/kg/injection, schedule: Q01DX009 (ip), vehicle: water) was 88 % of control, the T/C (dose: 3.12 mg/kg/injection, schedule: Q04DX003 (ip), vehicle: water) was 97 % of control and the T/C (dose: 6.25 mg/kg/injection, schedule: Q01DX009 (ip), vehicle: water) was 87 % of control and 101 % of control. For the same compound, the T/C (dose: 12.5 mg/kg/injection, schedule: Q01DX009 (ip), vehicle: water) was 97 % of control and the T/C (dose: 50.0 mg/kg/injection, schedule: Q01DX009 (ip), vehicle: water) was 87 % of control.
For `CC1=CC=CC(=O)C1(C)C(Cl)Cl` (stereo unspecified), the T/C [2] was 110 % of control, the T/C [3] was 115 % of control and the T/C [4] was 120 % of control.
With `O=C(OC(c1ccccc1)(C(F)(F)F)C(F)(F)F)c1cccc(Cl)c1` the T/C [10] was 104 % of control, the T/C [11] was 109 % of control and the T/C [12] was 118 % of control.
With `CC(=O)Nc1ccc(C=O)cc1[N+](=O)[O-]` the T/C [5] was 110 % of control, the T/C [6] was 100 % of control and the T/C [7] was 100 % of control.
For `Cc1cccc(NC(=O)NCCOC(=O)OCCNC(=O)Nc2cccc(C)c2C)c1C`, the T/C [11] was 90 % of control, the T/C [12] was 90 % of control and the T/C [13] was 113 % of control.
With `CN(C(=O)N(C)c1ccccc1)c1ccccc1` the T/C [5] was 100 % of control, the T/C (dose: 100.0 mg/kg/injection, schedule: Q04DX003 (ip), vehicle: Klucel (hydroxypropylcellulose) (HPC)) was 91 % of control and the T/C [6] was 90 % of control. For the same compound, the T/C (dose: 200.0 mg/kg/injection, schedule: Q04DX003 (ip), vehicle: Klucel (hydroxypropylcellulose) (HPC)) was 91 % of control, the T/C [7] was 100 % of control and the T/C (dose: 400.0 mg/kg/injection, schedule: Q04DX003 (ip), vehicle: Klucel (hydroxypropylcellulose) (HPC)) was 87 % of control.
With `C[N+]12CCN(CC1)CC2` the T/C (dose: 100.0 mg/kg/injection, schedule: Q01DX009 (ip), vehicle: saline) was 91 % of control, the T/C (dose: 200.0 mg/kg/injection, schedule: Q01DX009 (ip), vehicle: saline) was 91 % of control and the T/C (dose: 400.0 mg/kg/injection, schedule: Q01DX009 (ip), vehicle: saline) was 100 % of control.
For `CCCCCC#CC1OC12CCCCC2` (stereo unspecified), the T/C [10] was 124 % of control, the T/C [11] was 119 % of control and the T/C [12] was 102 % of control.
For `C/C=C1\CN2CCc3c([nH]c4ccccc34)C2CC1Cc1nccc2c1[nH]c1ccccc12` (stereo unspecified), the T/C (dose: 1.0 mg/kg/injection, schedule: Q04DX003 (ip), vehicle: saline) was 98 % of control, the T/C (dose: 2.0 mg/kg/injection, schedule: Q04DX003 (ip), vehicle: saline) was 102 % of control and the T/C (dose: 4.0 mg/kg/injection, schedule: Q04DX003 (ip), vehicle: saline) was 102 % of control. The T/C (dose: 6.0 mg/kg/injection, schedule: Q04DX003 (ip), vehicle: saline) was 107 % of control, the T/C (dose: 12.0 mg/kg/injection, schedule: Q04DX003 (ip), vehicle: saline) was 103 % of control and the T/C (dose: 24.0 mg/kg/injection, schedule: Q04DX003 (ip), vehicle: saline) was 100 % of control. For the same compound, the T/C (dose: 48.0 mg/kg/injection, schedule: Q04DX003 (ip), vehicle: saline) was 100 % of control.
In the case of `CC(=O)c1cccc(NC2C(N)C(NC(=O)N(C)C)(C(C)O)C(C)(O)C2(O)COC(=O)c2c(C)cccc2O)c1` (stereo unspecified), the T/C (dose: 5.4 mg/kg/injection, schedule: Q04DX003 (ip), vehicle: alkali diluted with saline) is reported as 167 % of control, the T/C (dose: 6.5 mg/kg/injection, schedule: Q04DX003 (ip), vehicle: alkali diluted with saline) is reported as 163 % of control and the T/C (dose: 8.64 mg/kg/injection, schedule: Q04DX003 (ip), vehicle: alkali diluted with saline) is reported as 159 % of control. For the same compound, the T/C (dose: 9.0 mg/kg/injection, schedule: Q04DX003 (ip), vehicle: alkali diluted with saline) was 170 % of control and the T/C (dose: 10.8 mg/kg/injection, schedule: Q04DX003 (ip), vehicle: alkali diluted with saline) was 169 % of control.
`Cc1ccc2[nH]c(=S)n(-c3cccc(C(F)(F)F)c3)c(=O)c2c1` was tested, and the T/C [9] was 102 % of control, the T/C [10] was 92 % of control and 94 % of control and the T/C [11] was 102 % of control. The T/C [12] was 93 % of control and the T/C [13] was 102 % of control.
